Test results: patent US5360803A, “Composition and method for treating cancer” (Dan Farber Cancer Institute, priority 1992, dated 1994)
Like-named read-outs stand apart in the source and are kept apart here. Values belong to the molecule of their own block, whether it stands above or below them.

What was measured:
[1] = tested on: MCF-7 cells; assay: colony assay of Example 1 with human breast carcinoma MCF-7 cell line; type: cell-based
Text: (§1) The control received culture media only.

[2] = tested on: CX-1 cells; assay: selective killing assay, colony number reduced to 50% of control, human colon carcinoma cell line CX-1; type: cell-based; details: for Selectivity (ratio of IC50 for CV-1 and IC50 for CX-1): CV-1/CX-1; for IC50: Homo sapiens; for CX-1 (IC50): Table III;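 for all read-outs here: colonies stained with crystal violet and counted, control cells given medium alone, exposure at 37 °C, normal monkey kidney epithelial CV-1 cells as the non-cancer comparator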
Method: (§2) Human colon carcinoma cell line CX-1 or normal monkey kidney epithelial cell line CV-1 was chosen as representatives of cancer cells and normal cells, respectively. […] CX-1 cells (2,000 cells/well) and CV-1 cells (1,000 cells/well) were plated in 24-well plastic culture plates. […] The control received culture media only. Cells were treated with compounds of General Formulas (I) to (V) at 37° C. for 24 hours. After rinsing with fresh culture medium three times, the cells were further incubated at 37° C. for 7 to 10 days. Cell colonies were fixed and stained with 2% crystal violet in 70% ethanol for 10 minutes and rinsed in water. […] The selectivity is defined as the ratio of IC50 for CV-1 and IC50 for CX-1.

[3] = tested on: CV-1 cells; assay: selective killing assay, colony number reduced to 50% of control, normal monkey kidney epithelial cell line CV-1; type: cell-based; details: 24 hours treatment; for IC50: Primates
Text: as §1

[4] = tested on: EJ cells; assay: colony assay of Example 1 with human bladder carcinoma EJ cell line; type: cell-based; details: for Selectivity: CV-1/EJ;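 for all read-outs here: colony formation assay with 24 h compound exposure at 37 °C, then 7–10 days drug-free regrowth, colonies stained with crystal violet, controls given medium alone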
Method: as §2

[5] = tested on: LOX cells; assay: colony assay of Example 1 with human melanoma LOX cell line; type: cell-based; details: for Selectivity: CV-1/LOX;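 for all read-outs here: colony formation assay with 24 h exposure at 37 °C, then 7 to 10 days of regrowth, crystal violet staining of colonies, control wells given medium alone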
Method: as §2

[6] = tested on: CRL 1420 cells; assay: colony assay of Example 1 with human pancreatic carcinoma CRL 1420 cell line; type: cell-based; details: for Selectivity: CV-1/CRL-1420; for CRL-1420(IC50): Table VII, human pancreatic carcinoma, 24 hours treatment;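 for all read-outs here: colony formation assay, cells exposed for 24 h then regrown 7 to 10 days without compound, colonies stained with crystal violet, control given medium alone, normal reference CV-1 monkey kidney epithelial cells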
Method: as §2

[7] = tested on: human melanoma LOX; assay: survival of nude mice implanted with human melanoma LOX; type: in vivo, male athymic Swiss nu/nu mouse (human tumor); details: for response vs control in vivo at 5 mg/kg: Mus musculus, ip, 24 h, read-out: T/C; for T/C: 5 mg/kg i.p. on day 1, 4, 8, 11, 15, 18
Method: LOX, a human melanoma cell line, grown subcutaneously in nude mice was excised, trypsinized to yield a single cell suspension using a metal grid with a […] mesh. […] Five million viable trypan blue negative cells made up in 0.1 ml of Dulbecco modified Eagle medium (DMFE) were injected into the peritoneal cavity of a male athymic Swiss nu/nu mouse. The control group and each treatment group consisted of 5 to 10 mice. Treatment was commenced the following day by intraperitoneal injection.
Ten control mice received 0.25 ml of 2% dextrose on these days the treated groups were injected with the compounds of this invention. […] T/C is the ratio, expressed as a percentage of the mean survival age of the treated group to the mean survival age of the untreated control group.

[8] = tested on: human colon carcinoma CX-1; assay: anti-human colon carcinoma CX-1 activity using nude mice; type: in vivo, Swiss nu/nu mice (human tumor); details: for inhibition in vivo at 5 mg/kg: Mus musculus, ip, 24 h, read-out: Tumor Inhibition
Text: Human colon carcinoma cell line CX-1 has been chosen by the National Cancer Institute as a mode for cancer drug screening (NCI Protocol 3C2H2). It was established in culture from the surgical explant of the primary colon adenocarcinoma of a person with no previous chemotherapy. The cultured CX-1 cells, upon subcutaneous injection, can grow readily in nude mice as a moderately- to well-differentiated human colon carcinoma. CEA is expressed as expected for differentiated colon carcinoma cells. Abundant keratin, consistent with epithelial origin, is present. Increased uptake and prolonged retention of delocalized lipophilic cations are observed.
Swiss nu/nu mice obtained from Taconic Farm were housed in a pathogen-free environment. Tumors subcutaneously passaged in nude mice were excised under sterile conditions and converted to a single cell suspension using a metal grid with a 0.4 mm mesh. Red blood cells were lysed by incubation with 0.17M ammonium chloride at 4° C. for 20 minutes. Cells were scored for viability with trypan blue. Viable CX-1 cells (2.5 million) made up in 0.1 ml of […]. The mice were randomly allocated into a control group (five mice) and a treatment group (five mice per group). The drug treatment was commenced the next day. Doses and schedules were developed empirically and were based mainly on information on LD50 and LD1O obtained from preliminary toxicity studies. The control group received an equivalent volume of hydroxypropyl-β-cyclodextrin-5% glucose solution.
The pharmaceutical compositions tested comprised solutions in 5% glucose subjected to sonication at concentrations of 1 mg/ml. Those compounds which were not completely dissolved by this procedure were dissolved hydroxypropyl-β-cyclodextrin using the following method. Hydroxypropyl-β-cyclodextrin (45 g) was mixed with 100 ml of sterilized, double distilled water and stirred for four hours. Each of the compounds to be tested (20 mg) was mixed with 10 ml of hydroxypropyl-β-cyclodextrin solution and sonicated for 60 minutes in the dark. This solution was then diluted in 5% glucose to yield a final compound concentration of 0.5 mg/ml, and further sonicated for 60 minutes in the dark to assure that the compound was completely dissolved.
When the growth of tumors in the control group reached the exponential phase and the size of the tumor was palpable (usually 20 to 30 days after tumor implantation), the experiments were terminated. Tumors in each mouse were excised and weighed using an analytical balance. Total tumor weight in each group from five mice was calculated. Per cent tumor inhibition between the treated group and the control group was then calculated for each group.

[9] = CV-1, Table III, normal monkey kidney epithelial cells, colony count after 7 to 10 days
[10] = Table V, human melanoma, 24 hours treatment
[11] = 5 mg/kg i.p. on day 1, 4, 8, 11, 15
[12] = CX-1, Table III, human colon carcinoma, 24 hours treatment, colony count after 7 to 10 days
[13] = 5 mg/kg i.p. on day 1, 5, 9, 13
[14] = human colon carcinoma, 24 hours treatment, colony count after 7 to 10 days
[15] = Table III, normal monkey kidney epithelial cells, colony count after 7 to 10 days

MCF-7(IC50) ([1]; Table VI, human breast carcinoma, 24 hours treatment): 0.09 µg/mL
IC50 ([4]; Homo sapiens, EJ, 24 h, Table IV, human bladder carcinoma, 24 hours treatment): 0.02 µg/mL
LOX(IC50) [5, 10]: 0.015 µg/mL
CRL-1420(IC50) [6]: 0.01 µg/mL
Structure (SMILES): CCn1c(=Cc2sc3ccccc3[n+]2CC)sc(=C2Sc3ccccc3N2C)c1=O [Compound 2]
Selectivity ([1]; CV-1/MCF-7): 111
Selectivity (ratio of IC50 for CV-1 and IC50 for CX-1) [2]: 333
IC50 ([2]; CX-1): 0.03 µg/mL
IC50 ([3]; CV-1, 24 h, Table V): 10 µg/mL
IC50 ([3]; CV-1, 24 h, Table VI): 10 µg/mL
IC50 ([3]; CV-1, 24 h, Table VII): 10 µg/mL
IC50 [3, 9]: 10 µg/mL
CV-1 (IC50) ([3]; Table IV): 4 µg/mL
Selectivity [4]: 200
Selectivity [5]: 667
Selectivity [6]: 1000
response vs control in vivo at 5 mg/kg [7, 11]: 163%

Structure (SMILES): CC[n+]1c(C=c2sc(=C3Sc4ccccc4N3C)c(=O)n2-c2ccccc2)sc2ccccc21 [Compound 7]
Selectivity (ratio of IC50 for CV-1 and IC50 for CX-1) [2]: 300
IC50 [2, 12]: 0.005 µg/mL
IC50 [3, 9]: 1.5 µg/mL
response vs control in vivo at 5 mg/kg ([7]; 5 mg/kg i.p. on day 1, 4, 8, 12): 182%
inhibition in vivo at 5 mg/kg ([8]; 5 mg/kg i.p. on day 1, 5, 7): 42%

IC50 ([5]; Homo sapiens, LOX, 24 h, Table V, human melanoma, 24 hours treatment): < 0.1 µg/mL
Structure (SMILES): CCn1c(=Cc2oc3ccccc3[n+]2C)sc(=C2Sc3ccccc3N2C)c1=O [Compound 8]
Selectivity (ratio of IC50 for CV-1 and IC50 for CX-1) [2]: 500
IC50 [2, 12]: 0.04 µg/mL
IC50 ([3]; CV-1, 24 h, Table V): 20 µg/mL
Selectivity [5]: > 200
response vs control in vivo at 5 mg/kg [7, 11]: 142%
inhibition in vivo at 5 mg/kg [8, 13]: 55.1%

EJ (IC50) ([4]; Table IV, human bladder carcinoma, 24 hours treatment): 0.05 µg/mL
LOX(IC50) [5, 10]: 0.1 µg/mL
CRL-1420(IC50) [6]: 0.09 µg/mL
Structure (SMILES): CCn1c(=Cc2oc3ccccc3[n+]2C)sc(=C2Sc3ccccc3N2C)c1=O [Compound 9]
Selectivity (ratio of IC50 for CV-1 and IC50 for CX-1) [2]: 500
CX-1 (IC50) [2, 14]: 0.04 µg/mL
IC50 ([3]; CV-1, 24 h, Table IV): 20 µg/mL
IC50 ([3]; CV-1, 24 h, Table VII): 20 µg/mL
CV-1 (IC50) ([3]; Table V): > 30 µg/mL
Selectivity [4]: 400
Selectivity [5]: > 300
Selectivity [6]: 222
T/C [7]: 142%
inhibition in vivo at 5 mg/kg ([8]; 5 mg/kg i.p. on day 1, 9, 13): 45.2%

LOX(IC50) [5, 10]: 0.1 µg/mL
CRL-1420(IC50) [6]: 0.08 µg/mL
Structure (SMILES): CCn1c(=Cc2oc3ccccc3[n+]2C)sc(=C2Sc3ccccc3N2C)c1=O [Compound 10]
Selectivity (ratio of IC50 for CV-1 and IC50 for CX-1) [2]: 500
CX-1 (IC50) [2, 14]: 0.04 µg/mL
CV-1 (IC50) [3, 15]: 20 µg/mL
CV-1 (IC50) ([3]; Table V): > 30 µg/mL
CV-1 (IC50) ([3]; Table VII): 20 µg/mL
Selectivity [5]: > 300
Selectivity [6]: 250
T/C [7]: 171%
Tumor Inhibition [8, 13]: 66.0%

Structure (SMILES): CCn1c(=Cc2oc3ccccc3[n+]2CC)sc(=C2Sc3ccccc3N2C)c1=O [Compound 28]
Selectivity (ratio of IC50 for CV-1 and IC50 for CX-1) [2]: 175
CX-1 (IC50) [2, 14]: 0.04 µg/mL
CV-1 (IC50) [3, 15]: 7 µg/mL
inhibition in vivo at 5 mg/kg ([8]; 5 mg/kg i.p. on day 1, 4, 8, 12, 16, 21): 68.8%
